Assay results as given in patent publication US10100096B2, “Tissue protective peptides and uses thereof” (Araim Pharmaceuticals, Inc., priority 2005, dated 2018).
Entries after “also recorded” stand apart in the source; their conditions may differ. No end group written: not given here.

Legend:
[1] = test system: right sciatic nerve of rats; experiment: Sciatic nerve assay (in vivo sciatic nerve injury model); parameters: species or system rat; conditions: Example 2, Table 1, FIG. 1, FIG. 2, comparison with carbamylated EPO
Experimental: The tissue protective peptides were tested for any tissue protective activity using a Sciatic Nerve Assay. Sprague-Dawley rats (250-300 grams) (six per group, including control) were anesthetized using isoflurane (Baxter NPC 10019-773-60) and a Table Top Laboratory Anesthesia System (flowmeter set to 2-3 liters/minute @55 psi) for at least 3 minutes. The rat was then placed on a homeothermic blanket to ensure that the core temperature of the rat was maintained at 35-37° C. during the operation. Core temperature was monitored via a rectal probe. The right sciatic nerve of the anesthetized rat was exposed at mid thigh through a quadriceps muscle dissection; a 2 cm incision with a 15 blade scalpel was made through the skin parallel and over the quadriceps muscle and the quadriceps muscle was cut to expose the sciatic nerve using a pair of dissecting scissors. The sciatic nerve was then freed from the surrounding membranes. A 2-0 braided silk thread (Ethicon, 685-G) was passed under the nerve and the ends of the suture passed through a guide which was maintained perpendicular to the nerve. The end of the suture was then tied to a non-elastic cord which was then draped around the pulley system (a NYL pulley bearing MTD ¼″ B (PO Number 04174-01) with stabilizer) and a 100 gram weight attached to the non-elastic cord was slowly released. The weight was allowed to hang for 1 minute before the silk suture was cut to release the weight.
A 289 pmol/kg dose of carbamylated erythropoietin, a 289 pmol/kg dose of one peptide from the series A-J (see Table 1), or PBS was then injected into the caudal vein using a ½ cc insulin syringe.
The muscle and surgical incision were then closed and 5 ml of Lactated Ringers solution was injected subcutaneously into the rat. The core temperature of the rat was maintained at 35-37° C. using a heat blanket during recovery.
Over the next four days the rear toe splaying of the rats was determined by placing the rat in an acrylic tube with a diameter of 30 cm on the scanning surface of a digital scanner. […] Three acceptable scans of each rat were taken. From the scans, the Toe Spread (the distance between the ball of the first toe and the ball of the fifth toe) and the Intermediate Toe Spread (the distance between the ball of the second toe and the ball of the fourth toe) were measured. The static sciatic index was then computed in accordance with S. Erbayraktar et al., 2003, Proc Natl Acad Sci USA 100, 6741-6746 (hereby incorporated by reference in its entirety) and statistical analysis performed.

[2] = test system: experimental autoimmune encephalomyelitis in mice; experiment: Murine EAE model; type: in vivo, mouse; conditions: C57BL/6 mice; 4.4 μg/kg daily starting day 4 after immunization; p<0.01; FIG. 13
Experimental: Experimental autoimmune encephalomyelitis ([…]) was induced in C57BL/6 female mice (6-8 weeks of age) according to Savino et al., 2006, J Neuroimmunol 172:27-37, hereby incorporated by reference in its entirety. EAE was induced by subcutaneous immunization in the flanks with a total of 200 μg of MOG35-55 (Multiple Peptide Systems, San Diego, Calif., USA) in incomplete Freund's adjuvant (Sigma. St. Louis, Mo., USA) supplemented with 8 mg/ml of Mycobacterium tuberculosis (strain H37RA; Difco, Detroit, Mich., USA). Animals were housed in specific pathogen-free conditions, allowing access to food and water ad libitum. Mice received 500 ng of pertussin toxin (Sigma) i.v. at the time of immunization and 48 h later. Weight and clinical score were recorded daily (0=healthy, 1=flaccid tail, 2=ataxia, and/or hind-limbs paresis, or slow righting reflex, […] 3=paralysis of hind limb and/or paresis of forelimbs, 4=paraparesis of fore limb, 5=moribund or death). Food pellets and the drinking water were placed on Petri plates on the floor of the cage to enable sick mice to eat and drink. Peptide E (SEQ ID NO:31) was administered daily subcutaneously at a dose of 4.4 micrograms/kg-bw, starting on day 4 after immunization.

[3] = In vivo assessment of erythropoietic activity and neutralizing antibodies; parameters: species or system rat; conditions: rats, 0.8 μg/kg s.c. 3 days/week over 130 days, FIG. 4; for increase in hemoglobin levels (hematocrit): EPO at equimolar dosage
Experimental: To evaluate the erythropoietic activity of tissue protective peptide F (SEQ ID NO:33) or peptide G (SEQ ID NO:40, as discussed supra a peptide constructed of the presenting residues of Helix B), the peptides were administered 0.8 μg/kg subcutaneously three time per week to male Sprague Dawley rats. The dosage schedule corresponded to the equivalent dose (on a molar basis) of EPO previously determined to be elicit maximum erythropoiesis. Hemoglobin concentration was determined periodically by use of an automated analyzer (Keska Corporation).

[4] = test system: mouse P19 cells; experiment: P19 cell apoptosis upon withdrawal of serum; type: cell-based; conditions: times more potent than EPO, on a weight basis; FIG. 6
Experimental: Alternatively, tissue protection afforded by peptides can be determined using an assay employing mouse P19 cells, which are neuronal-like and die via apoptosis upon withdrawal of serum. Tissue protection of peptide D (SEQ ID NO:30) was compared to that of EPO using P19 clone P19S1801A1 as previously published (Siren et al., 2001, PNAS 98:4044, hereby incorporated by reference in its entirety). Cells were maintained undifferentiated in DMEM supplemented with 2 mM Lglutamine; 100 units/ml penicillin G; […] streptomycin sulfate (GIBCO); 10% (vol/vol) FBS (HyClone), containing 1.2 g/liter NaHCO3 and 10 mM Hepes buffer, hereafter referred to as complete medium. Serum-free medium contained the same components as above with the deletion of serum and the addition of 5 mg/ml of insulin; […] of transferrin; 20 nM progesterone; […] putrescine; 30 nM Na2SeO3 (from Sigma). For the experiments, 50% confluent cells were pretreated overnight with EPO or vehicle, dissociated with trypsin, washed in serum-free medium, and plated in 25-cm^2 tissue culture flasks at a final density of 10^4 cells/cm^2 in serum-free medium alone or with added EPO. Cell viability and was determined by trypan blue exclusion and a hemacytometer.

## APPRLICDSRVLERYLLEAKEAE (Peptide A - consists of the N-terminal portion of Helix A corresponding to EPO amino acids 1-23) [EPO fragment, amino acids 1-23]
[1]
  tissue protective activity in the sciatic nerve injury model (in words): is tissue protective

## CSLNENIQEQLERALNSS (Peptide I - A chimera peptide linking the helix B exterior-presenting amino acids to the beta pleated sheet found within the AB loop of the EPO) [chimera: Peptide G + β-pleated sheet (33-39)]
[1]
  tissue protective activity in the sciatic nerve injury model (in words): is tissue protective

## GCAEHCSLNENITVPDTKVN (Peptide E - a portion of the A-B loop consisting of a small cysteine loop and a Beta-pleated sheet corresponding to EPO amino acids 28-47) [EPO fragment, amino acids 28-47]
[1]
  tissue protective activity in the sciatic nerve injury model (in words): is tissue protective
[1]; listed as SEQ ID NO:31
  tissue protective activity in the sciatic nerve injury model (in words): exhibit tissue protective properties
[2]
  clinical score / neurological function in EAE: significantly reduced both the time course and severity; also recorded: significantly improved neurological function

## NITTGCAEHCSLNE (Peptide B - consists of EPO amino acids 24-37) [EPO fragment, amino acids 24-37]
[1]
  tissue protective activity in the sciatic nerve injury model (in words): is not tissue protective
[3]
  increase in hemoglobin levels (hematocrit): Neither Peptide B nor Peptide C showed any increase in hematocrit

## NITVPDTKVNFYAWKRMEVG (Peptide C - loop AB and N-terminal portion of helix B corresponding to EPO amino acids 38-57) [EPO fragment, amino acids 38-57]
[4]
  potency relative to EPO in preventing apoptosis of p19 cells: at least 10
[1]
  tissue protective activity in the sciatic nerve injury model (in words): exhibit tissue protective properties
[3]
  increase in hemoglobin levels (hematocrit): Neither Peptide B nor Peptide C showed any increase in hematocrit

## QEQLERALNSS [Peptide G, QEQLERALNSS]
[3]
  neutralizing antibody response against EPO: no neutralizing antibody response was observed; also recorded: neither peptide elicits an antibody response

## QEQLERALNSSLRRYINMLTRTR (Peptide J - A chimera peptide of Peptide G linked to pancreatic polypeptide helix)
[1]
  tissue protective activity in the sciatic nerve injury model (in words): potent tissue protective activity

## RYLLEAKEAENITTGC [Peptide F, RYLLEAKEAENITTGC]
[3]
  neutralizing antibody response against EPO: no neutralizing antibody response was observed; also recorded: neither peptide elicits an antibody response
